{
  "source": "BindingDB's records for PubMed 20068177",
  "about": "(Wyeth Research)",
  "target": "Phosphatidylinositol 3-kinase regulatory subunit alpha/4,5-bisphosphate 3-kinase catalytic subunit alpha isoform (Homo sapiens, UniProt P27986+P42336)",
  "sequence (P27986 whole entry, canonical isoform)": "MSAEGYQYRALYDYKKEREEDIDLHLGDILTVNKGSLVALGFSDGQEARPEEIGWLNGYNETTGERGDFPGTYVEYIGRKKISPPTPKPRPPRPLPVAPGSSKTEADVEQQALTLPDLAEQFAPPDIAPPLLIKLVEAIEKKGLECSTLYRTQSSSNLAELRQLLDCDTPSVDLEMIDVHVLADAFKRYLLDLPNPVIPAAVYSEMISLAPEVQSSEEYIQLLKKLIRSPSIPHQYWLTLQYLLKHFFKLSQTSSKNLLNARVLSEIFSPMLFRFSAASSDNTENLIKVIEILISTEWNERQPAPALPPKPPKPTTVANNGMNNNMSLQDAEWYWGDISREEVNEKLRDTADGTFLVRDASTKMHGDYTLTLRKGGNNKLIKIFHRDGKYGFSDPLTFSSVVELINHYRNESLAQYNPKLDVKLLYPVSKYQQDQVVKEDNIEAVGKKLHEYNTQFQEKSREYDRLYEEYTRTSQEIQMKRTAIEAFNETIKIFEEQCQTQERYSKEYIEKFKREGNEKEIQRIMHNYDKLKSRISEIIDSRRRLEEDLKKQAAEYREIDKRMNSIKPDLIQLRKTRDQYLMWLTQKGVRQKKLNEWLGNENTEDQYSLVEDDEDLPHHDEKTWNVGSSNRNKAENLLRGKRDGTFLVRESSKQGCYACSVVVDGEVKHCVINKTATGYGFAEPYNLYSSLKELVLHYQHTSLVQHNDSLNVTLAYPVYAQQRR",
  "sequence (P42336 whole entry, canonical isoform)": "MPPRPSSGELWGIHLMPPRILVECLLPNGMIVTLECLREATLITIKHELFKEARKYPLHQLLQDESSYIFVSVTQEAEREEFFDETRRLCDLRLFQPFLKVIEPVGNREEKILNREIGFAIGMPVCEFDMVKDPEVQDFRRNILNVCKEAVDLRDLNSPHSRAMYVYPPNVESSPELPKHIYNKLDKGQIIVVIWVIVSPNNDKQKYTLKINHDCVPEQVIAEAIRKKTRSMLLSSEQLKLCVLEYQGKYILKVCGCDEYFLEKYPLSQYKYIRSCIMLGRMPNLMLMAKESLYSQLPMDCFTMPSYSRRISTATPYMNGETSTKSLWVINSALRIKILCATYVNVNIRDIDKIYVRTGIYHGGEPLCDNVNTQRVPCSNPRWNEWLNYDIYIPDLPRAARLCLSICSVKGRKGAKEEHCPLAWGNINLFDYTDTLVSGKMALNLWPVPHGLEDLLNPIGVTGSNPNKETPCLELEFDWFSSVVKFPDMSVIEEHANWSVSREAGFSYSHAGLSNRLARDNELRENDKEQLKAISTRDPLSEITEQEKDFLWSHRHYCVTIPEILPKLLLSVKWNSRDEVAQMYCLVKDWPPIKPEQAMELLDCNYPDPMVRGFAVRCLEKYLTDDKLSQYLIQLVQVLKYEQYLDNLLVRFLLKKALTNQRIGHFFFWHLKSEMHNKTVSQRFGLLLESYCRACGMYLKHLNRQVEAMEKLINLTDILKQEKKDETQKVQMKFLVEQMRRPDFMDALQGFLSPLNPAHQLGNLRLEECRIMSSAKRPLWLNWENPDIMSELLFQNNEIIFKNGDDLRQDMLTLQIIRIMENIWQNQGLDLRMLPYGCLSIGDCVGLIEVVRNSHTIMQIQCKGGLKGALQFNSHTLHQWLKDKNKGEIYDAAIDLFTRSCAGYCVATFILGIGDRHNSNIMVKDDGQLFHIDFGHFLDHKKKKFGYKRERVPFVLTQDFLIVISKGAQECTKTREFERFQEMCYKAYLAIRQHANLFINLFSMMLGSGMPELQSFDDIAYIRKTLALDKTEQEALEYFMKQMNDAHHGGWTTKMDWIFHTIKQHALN",
  "assay": "Inhibition of recombinant human full-length N-terminal His6-tagged p110alpha/full length untagged human p85alpha expressed in baculovirus infected Sf21 insect cells using PIP2 as substrate measured after 15 to 30 mins by fluorescence polarization assay",
  "data": [
    {"smiles": "CNC(=O)Nc1ccc(-c2nc(N3CC4CCC(C3)O4)c3cnn(C4CCC5(CC4)OCCO5)c3n2)cc1", "note": "[1-(4-(4-(8-oxa-3-azabicyclo[3.2.1]octan-3-yl)-1-(1,4-dioxaspiro[4.5]decan-8-yl)-1H-pyrazolo[3,4-d]pyrimidin-6-yl)phenyl)-3-methylurea]", "values": [
      {"measurement": "IC50", "result": 1180, "unit": "nM"}
    ]}
  ]
}
